{"source": "patent US20110105393A1", "about": "“METHODS FOR PROMOTING STEM CELL PROLIFERATION AND SURVIVAL” (priority 2007, published 2011)", "key": {"[1]": {"system": "TH+ dopaminergic neurons", "experiment": "Tyrosine hydroxylase immunohistochemistry in striatum and substantia nigra, 6OHDA model", "type": "in vivo, rat", "conditions": "% ipsi- vs. contra-lateral TH optical density (FIG. 13b)", "protocol": "(§1) Pharmacological treatments.\n(§2) Immunohistochemistry: Under deep anesthesia, animals were perfused transcardially with a rinse of saline, followed by 4% formaldehyde fixative (pH 7.4). Brains were removed immediately, stored in the fixative solution overnight and then in 30% sucrose for 3 days. Brains were frozen-sectioned at 16 μm. Immunohistochemical detection of BrdU and Hes3 was performed with an antigen-retrieval step (sections were boiled in 0.02M citrate, pH 6.0 in a microwave for 5 min, washed 3 times with distilled water, and incubated for 45 min in 2M HCl, at room temperature).\n(§3) To investigate the clinical potential of this treatment approach, the compounds were used in an animal model of Parkinson's disease. Adult rats were lesioned by intra-striatal 6-OH-DA (Przedborski, S. et al., Neuroscience 67, 631-47, 1995). After two weeks, a single injection of the compounds was administered in the lateral ventricle ipsilateral to the lesion. Amphetamine-induced rotations were measured bi-weekly throughout the experiment. Thirteen weeks after treatment they were given a single injection of fluorogold in the striatum to label the […] dopaminergic projection.\nImmunohistochemistry: Under deep anesthesia, animals were perfused transcardially with a rinse of saline, followed by 4% formaldehyde fixative (pH 7.4). […]"}, "[2]": {"system": "blood vessels (RECA-1)", "experiment": "Blood vessel number and size in striatum (RECA-1 staining) after 6OHDA lesion and treatment", "conditions": "for number and size of blood vessels in the striatum: 13 weeks after a single treatment, pattern recognition software; for blood vessel numbers or size (undesirable effects, summary): rat, in vivo", "protocol": "Blood vessel counting and area quantitation: Zeiss software was used to identify, count, and measure blood vessels stained for the pan-endothelial marker RECA-1. To measure the average distance between adjacent Hes3+ cells along the same blood vessel, 25 high-power (×63) confocal z-stack images were used from brain sections stained for endothelial markers and Hes3.\n6OHDA Lesion. Some animals underwent unilateral lesion of the nigrostriatal dopamine pathway by stereotactical injection of 50 μg 6-hydroxydopamine (6-OHDA) into the right striatum, using the following coordinates: bregma AP +0.5 mm, ML −3.0 mm, VD +5.5 mm.\nPharmacological treatments. Unlesioned animals, or animals two weeks after 6-OHDA lesion, were treated with different pharmacologic agents. Five microliters (μl) of different drugs were stereotactically injected into the right lateral ventricle using the following stereotaxic coordinates: bregma AP −0.9 mm, ML −1.4 mm, VD +3.8 mm. The following reagents were used: Dll4 (2 mg/ml), Ang-2 (1 mg/ml), insulin (8 mg/ml), Jak-Inhibitor (20 μM), either alone or in combination.\nIn vivo Experiments: Male adult (3-6 months) Sprague Dawley rats (Charles River Laboratories), weighing 250-350 gm, was used for pharmacological treatments and lesion experiments. For 6OHDA Lesion: animals underwent unilateral lesion of the nigrostriatal dopamine pathway by stereotactical injection of 50 μg 6-hydroxydopamine (6-OHDA) into the right striatum, using the following coordinates: bregma AP +0.5 mm, ML −3.0 mm, VD +5.5 mm. For pharmacological treatments: unlesioned animals, or animals two weeks after 6OHDA lesion, were treated with different pharmacologic agents. Five μl of different drugs were stereotactically injected into the right lateral ventricle using the following stereotaxic coordinates: bregma AP −0.9 mm, ML −1.4 mm, VD +3.8 mm. The following reagents were used: Dll4 (2 mg/ml), Ang2 (1 mg/ml), insulin (8 mg/ml), Jak-Inhibitor (20 μM), either alone or in combination. After all surgeries, animals were allowed to recover from the anesthesia and were put back into their home cages, where they were given access to food and water ad libitum. For labeling of dividing cells: Animals received intraperitoneal injection of the tracer bromodeoxyuridine (BrdU) (50 mg/kg) every 12 hours for 5 days beginning on day 1 post-op to label dividing cells. Amphetamine induced rotations: At multiple time points over the course of the experiment, lesioned rats were injected intra-peritoneally with D-Amphetamine sulfate (5 mg/kg) and placed in automated rotometer bowls. Rotational behavior was assessed by monitoring total number of whole body (360°) turns over 60 min."}, "[3]": {"system": "Hes3+ cells", "experiment": "Hes3+ cells after single intra-ventricular injection", "type": "in vivo, rat", "conditions": "for number of Hes3+ cells in the adult striatum and substantia nigra: single intracerebroventricular injection, within 5 days (FIG. 11); for number of stem cells/precursors in the adult brain: summary of in vivo treatments", "protocol": "as §1, §2\n(§4) Hes3+ cells in the central nervous system (CNS) parenchyma were characterized and the means to activate the NSC compartment in vivo was investigated. Single injections of pharmacologically active compounds were performed in the lateral ventricle, bromodeoxyuridine (BrdU) was administered intraperitoneally (days 2-4) and the animals were sacrificed on day 5. At the subventricular zone (SVZ), a single intra-ventricular injection of Dll4 induced STAT3-S727 phosphorylation and Hes3 expression within 5 days. […] BrdU+ cell numbers were elevated in all these areas (FIG. 3a).\nas §2, with “(Sections” for “(sections”, “minutes,” for “min,”"}, "[4]": {"system": "proliferating (BrdU+) cells", "experiment": "BrdU+ proliferating cells after single intra-ventricular injection", "type": "in vivo, rat", "conditions": "BrdU days 2-4, sacrifice day 5", "protocol": "as §1, §2, §4"}, "[5]": {"system": "dopamine neurons in the substantia nigra", "experiment": "Fluorogold retrograde labelling of dopamine neurons in the substantia nigra, 6OHDA model", "type": "in vivo, rat", "conditions": "for neuroprotective effects on neurons: summary of in vivo treatments; for cell body diameter of TH+/Fluorogold+ cells in the substantia nigra: treatment 2-weeks following 6OHDA lesion, ipsilateral (FIG. 6e)", "protocol": "as §1, §3"}, "[6]": {"conditions": "6OHDA lesioned, striatum, RECA-1 (FIG. 5c)"}}}
{"substance": "Dll4: Notch ligand Delta-like 4; mouse Dll4 (1389-D4) from R&D", "values": [{"measurement": "TH+ signal in the lesioned striatum", "setting": "[1]", "value": "increase"}, {"measurement": "diameter of the vessels", "setting": "[2]; [6]", "value": "significantly decreased"}, {"measurement": "number and size of blood vessels in the striatum", "setting": "[2]", "value": "opposing and long-lasting effects"}, {"measurement": "blood vessel numbers or size (undesirable effects, summary)", "setting": "[2]", "value": "reduces the number and size of blood vessels"}, {"measurement": "STAT3-S727 phosphorylation and Hes3 expression at the subventricular zone", "setting": "[3]; single intra-ventricular injection, within 5 days", "value": "induced"}, {"measurement": "number of Hes3+ cells in the adult striatum and substantia nigra", "setting": "[3]", "value": "increased"}, {"measurement": "numbers of Hes3+ and Tie-2+ precursor cells in the SVZ", "setting": "[3]; single ventricular injection", "value": "rapidly increased"}, {"measurement": "number of stem cells/precursors in the adult brain", "setting": "[3]", "value": "increase"}, {"measurement": "number of proliferating cells in the SVZ", "setting": "[4]", "value": "increased"}, {"measurement": "neuroprotective effects on neurons", "setting": "[5]", "value": "exert neuroprotective effects"}]}
{"substance": "insulin: insulin (Sigma, 19278), growth factor", "values": [{"measurement": "effect on the vasculature (striatum, RECA-1)", "setting": "[2]; 6OHDA lesioned, end of experiment (FIG. 5c)", "value": "relatively small effect"}, {"measurement": "blood vessel numbers or size (undesirable effects, summary)", "setting": "[2]", "value": "increases the number of blood vessels adjacent to the injection site"}, {"measurement": "number of stem cells/precursors in the adult brain", "setting": "[3]", "value": "increase"}, {"measurement": "number of proliferating cells in the SVZ", "setting": "[4]", "value": "increased"}, {"measurement": "neuroprotective effects on neurons", "setting": "[5]", "value": "exert neuroprotective effects"}, {"measurement": "cell body diameter of TH+/Fluorogold+ cells in the substantia nigra", "setting": "[5]", "value": "increase"}]}
{"substance": "Ang-2: human angiopoietin-2 (623-AN) from R&D; antagonist for angiopoietin-1 at Tie2", "values": [{"measurement": "TH+ signal in the lesioned striatum", "setting": "[1]", "value": "increase"}, {"measurement": "number of vessels", "setting": "[2]; [6]", "value": "significantly increased"}, {"measurement": "number and size of blood vessels in the striatum", "setting": "[2]", "value": "opposing and long-lasting effects"}, {"measurement": "blood vessel numbers or size (undesirable effects, summary)", "setting": "[2]", "value": "increases the number and size of blood vessels"}, {"measurement": "number of Hes3+ cells in the adult striatum and substantia nigra", "setting": "[3]", "value": "increased"}, {"measurement": "number of stem cells/precursors in the adult brain", "setting": "[3]", "value": "increase"}, {"measurement": "number of proliferating cells in the SVZ", "setting": "[4]", "value": "increased"}, {"measurement": "neuroprotective effects on neurons", "setting": "[5]", "value": "exert neuroprotective effects"}, {"measurement": "cell body diameter of TH+/Fluorogold+ cells in the substantia nigra", "setting": "[5]", "value": "increase"}]}
